Here are results for 56 substances from patent publication US20250231185A1, “Coronavirus T Cell Epitopes, Megapools and Uses Thereof” (La Jolla Institute for Immunology, priority 2021, published 2025).

Entries after “also recorded” stand apart in the source; their conditions may differ.

For one experiment, the system named is CD4+ T cells. In words: Meta-analysis of published SARS-CoV-2 CD4 T cell epitope data curated in the IEDB (25 studies). Format: cell-based, human. The following applies: CD4R (D) Megapool, non-spike antigens; dominant = recognized in 3 or more donors/studies.
Turning to 2287 (FYVYSRVKNLNSSRV) [compound 2287], the Dominant entry is listed as “Yes (more dominant epitopes are defined by being recognized by 3 or more donors/different studies)”.

Regarding 2288 (QFAYANRNRFLYIIK) [compound 2288], the Dominant entry is reported as “Yes (more dominant epitopes are defined by being recognized by 3 or more donors/different studies)”.

Turning to 2289 (VLAAVYRINWITGGI) [compound 2289], the Dominant result is “Yes (more dominant epitopes are defined by being recognized by 3 or more donors/different studies)”.

For 2290 (YRINWITGGIAIAMA) [compound 2290], the Dominant result is “Yes (more dominant epitopes are defined by being recognized by 3 or more donors/different studies)”.

As to 2291 (CLVGLMWLSYFIASF) [compound 2291], the Dominant entry is given as “Yes (more dominant epitopes are defined by being recognized by 3 or more donors/different studies)”.

In the case of 2292 (MWLSYFIASFRLFAR) [compound 2292], the Dominant entry is reported as “Yes (more dominant epitopes are defined by being recognized by 3 or more donors/different studies)”.

Consider 2293 (TNILLNVPLHGTILT) [compound 2293], for which the Dominant result is “Yes (more dominant epitopes are defined by being recognized by 3 or more donors/different studies)”.

For 2294 (SELVIGAVILRGHLR) [compound 2294], the Dominant entry was “Yes (more dominant epitopes are defined by being recognized by 3 or more donors/different studies)”.

In the case of “2295 (GAVILRGHLRIAGHHLGR) [compound 2295]”, the Dominant result is “Yes (more dominant epitopes are defined by being recognized by 3 or more donors/different studies)”.

On to 2296 (LRGHLRIAGHHLGRC) [compound 2296], for which the Dominant result is on record as “Yes (more dominant epitopes are defined by being recognized by 3 or more donors/different studies)”.

For 2297 (RGHLRIAGHHLGRCD) [compound 2297], the Dominant result is listed as “Yes (more dominant epitopes are defined by being recognized by 3 or more donors/different studies)”.

Consider 2298 (IAGHHLGRCDIKDLP) [compound 2298], for which the Dominant result was “Yes (more dominant epitopes are defined by being recognized by 3 or more donors/different studies)”.

As for 2300 (IKDLPKEITVATSRT) [compound 2300], the Dominant result is on record as “Yes (more dominant epitopes are defined by being recognized by 3 or more donors/different studies)”.

In the case of 2301 (KEITVATSRTLSYYK) [compound 2301], the Dominant entry is given as “Yes (more dominant epitopes are defined by being recognized by 3 or more donors/different studies)”.

As to “2302 (TSRTLSYYKLGASQRVA) [compound 2302]”, the Dominant entry is recorded as “Yes (more dominant epitopes are defined by being recognized by 3 or more donors/different studies)”.

In the case of 2303 (SRTLSYYKLGASQRV) [compound 2303], the Dominant result is recorded as “Yes (more dominant epitopes are defined by being recognized by 3 or more donors/different studies)”.

On to 2305 (SYYKLGASQRVAGDS) [compound 2305], for which the Dominant result is listed as “Yes (more dominant epitopes are defined by being recognized by 3 or more donors/different studies)”.

For the substance 2306 (LGASQRVAGDSGFAA) [compound 2306], the Dominant result is “Yes (more dominant epitopes are defined by being recognized by 3 or more donors/different studies)”.

On to 2307 (SGFAAYSRYRIGNYK) [compound 2307], for which the Dominant entry is given as “Yes (more dominant epitopes are defined by being recognized by 3 or more donors/different studies)”.

In the case of 2308 (ASWFTALTQHGKEDL) [compound 2308], the Dominant entry was “Yes (more dominant epitopes are defined by being recognized by 3 or more donors/different studies)”.

As for 2309 (SWFTALTQHGKEDLK) [compound 2309], the Dominant result is “Yes (more dominant epitopes are defined by being recognized by 3 or more donors/different studies)”.

Take 2310 (DDQIGYYRRATRRIR) [compound 2310]: the Dominant entry was “Yes (more dominant epitopes are defined by being recognized by 3 or more donors/different studies)”.

With 2311 (IGYYRRATRRIRGGD) [compound 2311], the Dominant result is given as “Yes (more dominant epitopes are defined by being recognized by 3 or more donors/different studies)”.

Consider 2312 (YYRRATRRIRGGDGK) [compound 2312], for which the Dominant entry is reported as “Yes (more dominant epitopes are defined by being recognized by 3 or more donors/different studies)”.

2314 (RWYFYYLGTGPEAGL) [compound 2314]: the Dominant entry is “Yes (more dominant epitopes are defined by being recognized by 3 or more donors/different studies)”.

Take 2315 (NKDGIIWVATEGALN) [compound 2315]: the Dominant result was “Yes (more dominant epitopes are defined by being recognized by 3 or more donors/different studies)”.

Regarding 2316 (KDGIIWVATEGALNT) [compound 2316], the Dominant entry is on record as “Yes (more dominant epitopes are defined by being recognized by 3 or more donors/different studies)”.

Regarding 2317 (AIVLQLPQGTTLPKG) [compound 2317], the Dominant entry is “Yes (more dominant epitopes are defined by being recognized by 3 or more donors/different studies)”.

On to 2318 (AGNGGDAALALLLLD) [compound 2318], for which the Dominant result is “Yes (more dominant epitopes are defined by being recognized by 3 or more donors/different studies)”.

Consider 2319 (DAALALLLLDRLNQL) [compound 2319], for which the Dominant result is “Yes (more dominant epitopes are defined by being recognized by 3 or more donors/different studies)”.

In the case of 2320 (LLLLDRLNQLESKMS) [compound 2320], the Dominant entry is “Yes (more dominant epitopes are defined by being recognized by 3 or more donors/different studies)”.

As for 2321 (AAEASKKPRQKRTAT) [compound 2321], the Dominant result is given as “Yes (more dominant epitopes are defined by being recognized by 3 or more donors/different studies)”.

With 2322 (KKPRQKRTATKAYNV) [compound 2322], the Dominant result is reported as “Yes (more dominant epitopes are defined by being recognized by 3 or more donors/different studies)”.

Take 2323 (KRTATKAYNVTQAFG) [compound 2323]: the Dominant result is listed as “Yes (more dominant epitopes are defined by being recognized by 3 or more donors/different studies)”.

As for 2325 (LIRQGTDYKHWPQIA) [compound 2325], the Dominant result was “Yes (more dominant epitopes are defined by being recognized by 3 or more donors/different studies)”.

As to 2326 (YKHWPQIAQFAPSAS) [compound 2326], the Dominant result is listed as “Yes (more dominant epitopes are defined by being recognized by 3 or more donors/different studies)”.

Turning to 2327 (WPQIAQFAPSASAFF) [compound 2327], the Dominant entry was “Yes (more dominant epitopes are defined by being recognized by 3 or more donors/different studies)”.

As to 2328 (ASAFFGMSRIGMEVT) [compound 2328], the Dominant entry is listed as “Yes (more dominant epitopes are defined by being recognized by 3 or more donors/different studies)”.

Consider “2329 (GMEVTPSGTWLTYTGAIKLD) [compound 2329]”, for which the Dominant entry was “Yes (more dominant epitopes are defined by being recognized by 3 or more donors/different studies)”.

Regarding 2330 (PSGTWLTYTGAIKLD) [compound 2330], the Dominant entry was “Yes (more dominant epitopes are defined by being recognized by 3 or more donors/different studies)”.

For 2331 (GTWLTYTGAIKLDDK) [compound 2331], the Dominant entry was “Yes (more dominant epitopes are defined by being recognized by 3 or more donors/different studies)”.

Consider 2332 (FKDQVILLNKHIDAY) [compound 2332], for which the Dominant entry was “Yes (more dominant epitopes are defined by being recognized by 3 or more donors/different studies)”.

The next experiment has as its system CD4+ T cells.
Assay: not given
The following applies: CD4-restricted epitopes; HLA class II alleles identified as MHC restriction elements; cited from earlier work.
For 253 (YIINLIIKNLSKSLT) [compound 253], the “Allele(s) (HLA restriction)” value is “DRB1*11:02, DRB1*13:03”.

For the substance 257 (VKHVYQLRARSVSPK) [compound 257], the “Allele(s) (HLA restriction)” value is on record as “DRB1*01:03, DRB1*07:01”.

The experiment is the same for the next values; noted with them: CD4 epitopes; dominant = recognized by 3 or more donors/different studies; cited from earlier work.
As for 258 (QEEVQELYSPIFLIV) [compound 258], the Dominant entry was “Yes (more dominant epitopes are defined by being recognized by 3 or more donors/different studies)”.

Staying with this experiment, now noted: HLA class II allele(s) identified as MHC restriction elements of the CD4 epitope; cited from earlier work.
For the substance 97 (LTYTGAIKLDDKDPN) [compound 97], the “Allele(s)” value is listed as “DRB1*07:01”.

Take 100 (FKDQVILLNKHIDAY) [compound 100]: the “Allele(s)” value is “DRB1*03:01, DRB1*14:01,; also recorded: DRB1*14:06, DRB1*15:01,; also recorded: DRB1*16:02”.

As to 101 (ILLNKHIDAYKTFPP) [compound 101], the “Allele(s)” value is reported as “DRB1*14:06, DRB1*15:01”.

Turning to 103 (QKKQQTVTLLPAADL) [compound 103], the “Allele(s)” value is reported as “DRB1*01:02”.

For the substance 108 (EEIAIILASFSASTS) [compound 108], the “Allele(s)” value was “DQB1*02:02, DQB1*03:02,; also recorded: DRB1*04:10, DRB1*07:01”.

Consider 115 (IATNGPLKVGGSCVL) [compound 115], for which the “Allele(s)” value was “DRB1*13:02”.

Still in this experiment, the particulars now being: SARS-CoV-2-derived CD4 epitopes; Yes = recognized by 3 or more donors/different studies; cited from earlier work.
In the case of 95 (GTWLTYTGAIKLDDK) [compound 95], the Dominant result was “Yes (more dominant epitopes are defined by being recognized by 3 or more donors/different studies)”.

For the substance 100 (FKDQVILLNKHIDAY) [compound 100], the Dominant result is “Yes (more dominant epitopes are defined by being recognized by 3 or more donors/different studies)”.

Consider 101 (ILLNKHIDAYKTFPP) [compound 101], for which the Dominant entry is listed as “Yes (more dominant epitopes are defined by being recognized by 3 or more donors/different studies)”.

Still in this experiment, the particulars now being: T cell subset (CD4 or CD8) recognizing the SARS-CoV-2 epitope; cited from earlier work.
With 95 (GTWLTYTGAIKLDDK) [compound 95], the Restriction entry is given as “CD4”.

As for 96 (TWLTYTGAIKLDDKDPNF) [compound 96], the Restriction entry was “CD4”.

For 97 (LTYTGAIKLDDKDPN) [compound 97], the Restriction result is given as “CD4”.

With 99 (PNFKDQVILLNKHIDAYK) [compound 99], the Restriction result was “CD4”.

For the substance 100 (FKDQVILLNKHIDAY) [compound 100], the Restriction entry is “CD4”.

Take 101 (ILLNKHIDAYKTFPP) [compound 101]: the Restriction result is on record as “CD4”.

For 103 (QKKQQTVTLLPAADL) [compound 103], the Restriction entry is on record as “CD4”.

With 104 (KQQTVTLLPAADLDDF) [compound 104], the Restriction entry is “CD4”.

In the case of 106 (AADLDDFSKQLQQSM) [compound 106], the Restriction result was “CD4”.

In the case of 108 (EEIAIILASFSASTS) [compound 108], the Restriction result is “CD4”.

With 115 (IATNGPLKVGGSCVL) [compound 115], the Restriction result is “CD4”.
